Assay: solvent given as SMILES
[1] = in c1ccc2c(c1)c1ccccc1n2-c1ccc(-c2ccc(-n3c4ccccc4c4ccccc43)cc2)cc1

Molecule Cc1cc(C(F)(F)F)nc2c1ccc1nc(-c3ccc(F)c(F)c3)cn12 has a fluorescence lifetime (in CC#N) of 8.58 ns, a fluorescence lifetime (in CCCCOC(C)=O) of 7.28 ns and a fluorescence lifetime (in CCOC(C)=O) of 7.26 ns. The fluorescence lifetime (in CO) was 8.3 ns and the fluorescence lifetime (in c1ccccc1) was 6.69 ns.
In the case of CC(C)(C)c1ccc2c(c1)c1cc(C(C)(C)C)ccc1n2-c1ccccc1-c1nccnc1C#N, the fluorescence lifetime (in c1cc(-n2c3ccccc3c3ccccc32)cc(-n2c3ccccc3c3ccccc32)c1) is reported as 9.7 ns.
Molecule Cc1nc(-c2ccc(-n3c4ccccc4c4ccccc43)cc2)cc(-c2ccc(-n3c4ccccc4c4ccccc43)cc2)n1 has a fluorescence lifetime (in C1CCOC1) of 4.1 ns, a fluorescence lifetime (in CN(C)C=O) of 6.95 ns and a fluorescence lifetime (in Cc1ccccc1) of 2.05 ns. For the same molecule, the fluorescence lifetime (in ClC(Cl)Cl) was 3.86 ns.
Work on CC[n+]1nc2cc3c4c(c2c2cc(C)ccc21)CCCN4CCC3 yielded a fluorescence lifetime (in O) of 4.2 ns.
In the case of C(=C\c1c2ccccc2cc2ccccc12)/c1ccccc1, the fluorescence lifetime (in CC1CCCCC1) is reported as 3.6 ns and the fluorescence lifetime (in CC#N) is reported as 4.2 ns.
With CN(C)c1ccc(/C=C/c2ccc(-c3nc(C#N)c(C#N)n3C)cc2)cc1 the fluorescence lifetime (in C1CCCCC1) was 0.7 ns and the fluorescence lifetime (in ClC(Cl)Cl) was 0.7 ns.
With CCCCCCN1C(=O)c2cccc3cc(/N=C\c4c[nH]c5c4ccc4ccccc45)cc(c23)C1=O the fluorescence lifetime (in ClC(Cl)Cl) was 11.6 ns.
COC(=O)c1ccc(C#Cc2ccc(N(C)C)cc2)cc1 gave a fluorescence lifetime (in C1CCCCC1) of 1.35 ns, a fluorescence lifetime (in C1CCOC1) of 2.43 ns and a fluorescence lifetime (in C1COCCO1) of 2.38 ns. The fluorescence lifetime (in CC1CCCO1) was 2.68 ns, the fluorescence lifetime (in CC#N) was 1.48 ns and the fluorescence lifetime (in CC(C)=O) was 1.51 ns. The fluorescence lifetime (in CC(C)CC(C)(C)C) was 0.73 ns, the fluorescence lifetime (in CC(C)O) was 1.32 ns and the fluorescence lifetime (in CCCCCCCCCCCCCCCC) was 0.75 ns. For the same molecule, the fluorescence lifetime (in CCCCCCCCCCCCCCCCCl) was 0.92 ns, the fluorescence lifetime (in CCOC(C)=O) was 2.47 ns and the fluorescence lifetime (in CCOCC) was 0.959 ns. It also gave a fluorescence lifetime (in CN(C)C=O) of 1.7 ns, a fluorescence lifetime (in CS(C)=O) of 1.92 ns and a fluorescence lifetime (in Cc1ccccc1) of 0.9 ns.
Cc1c(C(=O)c2ccc3c4cccc5cccc(c6cccc2c63)c54)c2ccc3cccc4c5cccc6ccc1c(c65)c2c34 gave a fluorescence lifetime (in ClCCl) of 1.1 ns.
For CCCCCCCCCCc1cc(-c2cc(CCCCCCCCCC)c(-c3cccs3)s2)sc1-c1cccs1, the fluorescence lifetime (in CCC(C)C) was 0.38 ns.
In the case of N#Cc1ccc(/C=C/c2ccc(C=C(c3ccccc3)c3ccccc3)cc2)cc1, the fluorescence lifetime (in C1CCOC1) is reported as 0.5 ns.
Work on c1ccc2c(c1)[nH]c1c3ccccc3[nH]c21 yielded a fluorescence lifetime (in CCCO) of 5.5 ns.
With ClP1(Cl)=NP(Cl)(Cl)=NP(Cl)(Oc2ccc3ccc4cccc5ccc2c3c45)=N1 (centres undefined) the fluorescence lifetime (in ClCCl) was 3.29 ns.
Molecule CCn1c2ccccc2c2cc3c(cc21)c1ccccc1n3CC has a fluorescence lifetime (in ClC(Cl)Cl) of 2.9 ns.
Molecule C(=C\c1cc(-c2ccccc2)c(/C=C/c2ccc(N(c3ccccc3)c3ccccc3)cc2)cc1-c1ccccc1)/c1ccc(N(c2ccccc2)c2ccccc2)cc1 has a fluorescence lifetime (in ClCCl) of 1.29 ns.
[NH3+]c1ccc2ccc([O-])cc2c1 showed a fluorescence lifetime (in O) of 13.5 ns.
CC(C)(C)c1ccc2c(c1)c1cc(C(C)(C)C)ccc1n2-c1cccc(-n2c3ccc(C(C)(C)C)cc3c3cc(C(C)(C)C)ccc32)c1C#N gave a fluorescence lifetime (in Cc1ccccc1) of 5 ns and a fluorescence lifetime (in O=P(c1ccccc1)(c1ccccc1)c1ccccc1Oc1ccccc1P(=O)(c1ccccc1)c1ccccc1) of 6.8 ns.
With c1ccc(-c2nc(-c3ccc(-c4ccc(-c5nc(-c6ccccc6)c(-c6ccccc6)o5)cc4)cc3)oc2-c2ccccc2)cc1 the fluorescence lifetime (in C1COCCO1) was 0.95 ns.
With CC1(C)c2ccccc2N(c2ccc(-c3ncccn3)cc2)c2ccccc21 the fluorescence lifetime (in O=P(c1ccccc1)(c1ccccc1)c1ccc2oc3ccc(P(=O)(c4ccccc4)c4ccccc4)cc3c2c1) was 11 ns.
For Cc1ccc2c(c1)C(=O)c1ccncc1-2, the fluorescence lifetime (in CC#N) was 5.3 ns, the fluorescence lifetime (in CCOC(C)=O) was 7.4 ns and the fluorescence lifetime (in Cc1ccccc1) was 6.6 ns. The fluorescence lifetime (in ClCCl) was 5.9 ns.
Molecule CCCCN1/C(=C\c2c(-c3ccc(N(C)C)cc3)c(=O)c2=O)C=Cc2ccccc21 has a fluorescence lifetime (in C1CCCCC1) of 1.06 ns, a fluorescence lifetime (in Cc1ccccc1) of 2.99 ns and a fluorescence lifetime (in ClCCl) of 0.6 ns.
CC1(C)c2ccccc2N(c2ccc(C(=O)c3cc(C(=O)c4ccc(N5c6ccccc6C(C)(C)c6ccccc65)cc4)cc(C(=O)c4ccc(N5c6ccccc6C(C)(C)c6ccccc65)cc4)c3)cc2)c2ccccc21 gave a fluorescence lifetime (in Cc1ccccc1) of 16.7 ns and a fluorescence lifetime [1] of 25.8 ns.
Molecule CCc1cc(CC)cc(-n2c3ccccc3c3cc4c(cc32)c2ccccc2n4-c2cc(CC)cc(CC)c2)c1 has a fluorescence lifetime (in ClC(Cl)Cl) of 3.69 ns.
For CCC1=C(C)C2=Cc3c(I)c(I)cn3[B-](F)(F)[N+]2=C1C, the fluorescence lifetime (in C1CCCCC1) was 0.212 ns, the fluorescence lifetime (in CC(C)=O) was 0.097 ns and the fluorescence lifetime (in CCO) was 0.09 ns. The fluorescence lifetime (in CCOC(C)=O) was 0.116 ns, the fluorescence lifetime (in CO) was 0.087 ns and the fluorescence lifetime (in OCC(F)(F)F) was 0.11 ns.
Work on Cc1ccc2nc3[nH]c(=O)[nH]c(=O)c3nc2c1 yielded a fluorescence lifetime (in CC#N) of 0.6 ns and a fluorescence lifetime (in ClCCCl) of 0.49 ns.
Clc1cnc2nn3ccccc3c2n1 gave a fluorescence lifetime (in C1CCOC1) of 6.2 ns.
Cc1ccc2cc(C)ccc2c1 showed a fluorescence lifetime (in C1CCCCC1) of 64 ns.
CCCCCCCCN1C(=O)c2ccc3c4c(-c5ccc(-n6c7ccccc7c7ccccc76)cc5)cc5c6c(cc(-c7ccc(-n8c9ccccc9c9ccccc98)cc7)c(c7ccc(c2c37)C1=O)c64)C(=O)N(CCCCCCCC)C5=O gave a fluorescence lifetime (in ClC(Cl)Cl) of 3.3 ns.
Work on Nc1ccc2cc3ccccc3cc2c1 yielded a fluorescence lifetime (in C1CCCCC1) of 33 ns.
Cc1ccc(C2=C3C=CC4=[N+]3[P-](=O)(=O)n3c2ccc3-c2ccc([nH]2)/C(c2ccc(C)cc2)=c2/cc/c(o2)=C(\c2ccc(C)cc2)c2ccc4[nH]2)cc1 gave a fluorescence lifetime (in ClC(Cl)Cl) of 4.3 ns.
For N#Cc1c[nH]c2ccccc12, the fluorescence lifetime (in C1CCOC1) was 3.1 ns, the fluorescence lifetime (in C1COCCO1) was 3 ns and the fluorescence lifetime (in CC#N) was 1.8 ns. It also gave a fluorescence lifetime (in CS(C)=O) of 0.2 ns.
With C[Si](C)(C)c1ccc2ccc3cccc4ccc1c2c34 the fluorescence lifetime (in CCCCCC) was 66.9 ns, the fluorescence lifetime (in CO) was 175 ns and the fluorescence lifetime (in ClCCl) was 94.2 ns.
Cn1c(=O)cc(C(=O)c2ccccc2)c2sc(-c3ccc(N(c4ccccc4)c4ccccc4)cc3)cc21 showed a fluorescence lifetime (in ClCCl) of 0.99 ns.
In the case of Cc1nn(-c2ccccc2)c(C2=NN(c3ccc(Br)cc3)[C@@H](c3ccccc3)[C@@H]2c2ccccc2)c1C#N, the fluorescence lifetime (in C1CCCCC1) is reported as 4.73 ns, the fluorescence lifetime (in C1CCOC1) is reported as 5.04 ns and the fluorescence lifetime (in C1COCCO1) is reported as 5.21 ns. The fluorescence lifetime (in CC#N) was 5.05 ns, the fluorescence lifetime (in CCCCCCC) was 4.64 ns and the fluorescence lifetime (in CCO) was 4.53 ns. The fluorescence lifetime (in CN(C)C=O) was 4.95 ns, the fluorescence lifetime (in CO) was 3.74 ns and the fluorescence lifetime (in O) was 2.6 ns. The fluorescence lifetime (in OCCO) was 3.59 ns.
O=[N+]([O-])c1ccc(O)c(-c2nc3c(c4c2-c2ccccc2CC4)-c2ccccc2CC3)c1 gave a fluorescence lifetime (in ClCCl) of 0.45 ns.
In the case of C(=C\c1ccccc1)/c1ccccc1, the fluorescence lifetime (in CC#N) is reported as 0.07 ns.
For CCN(CC)c1ccc2c(c1)oc(=O)c1cnc3c(c(C)nn3-c3ccccc3)c12, the fluorescence lifetime (in ClCCl) was 3.34 ns.
With O=P1(c2ccccc2)c2cc(N3c4ccccc4Sc4ccccc43)ccc2-c2ccc(N3c4ccccc4Sc4ccccc43)cc21 the fluorescence lifetime [1] was 46.1 ns.
CC1=[N+]2C(=C(c3cccs3)c3ccc(C)n3[B-]2(F)F)C=C1c1cc2n(c1)[B-](F)(F)[N+]1=CC=CC1=C2c1c(C)cc(C)cc1C gave a fluorescence lifetime (in C1CCCCC1) of 2.67 ns and a fluorescence lifetime (in CCOC(C)=O) of 0.92 ns.
With CC(C)(C)c1ccc(-c2nc3c4ccc(-c5cccc6ccccc56)cc4c4cc(-c5cccc6ccccc56)ccc4c3n2-c2ccc(C(C)(C)C)cc2)cc1 the fluorescence lifetime (in ClCCl) was 7.4 ns.
CCC1=C(C)C2=C(C)c3c(I)c(I)c(I)n3[B-](F)(F)[N+]2=C1C showed a fluorescence lifetime (in C1CCCCC1) of 0.331 ns, a fluorescence lifetime (in CC(C)=O) of 0.206 ns and a fluorescence lifetime (in CCO) of 0.221 ns. The fluorescence lifetime (in CCOC(C)=O) was 0.241 ns, the fluorescence lifetime (in CO) was 0.214 ns and the fluorescence lifetime (in OCC(F)(F)F) was 0.21 ns.
CCCCCCn1c2cc(/C=C(\C#N)c3ccccc3)ccc2c2ccc(/C=C(\C#N)c3ccccc3)cc21 gave a fluorescence lifetime (in ClC(Cl)Cl) of 0.58 ns.
CCN(CC)c1ccc2c(c1)oc(=O)c1c(C)nc3c(c(-c4ccccc4)nn3C)c12 showed a fluorescence lifetime (in ClCCl) of 4.28 ns.
In the case of O=C(O)c1ccc2ccc3cccc4ccc1c2c34, the fluorescence lifetime (in C1CCOC1) is reported as 10.6 ns, the fluorescence lifetime (in CC#N) is reported as 9 ns and the fluorescence lifetime (in CCCCCC) is reported as 8.68 ns. For the same molecule, the fluorescence lifetime (in CCO) was 7.78 ns, the fluorescence lifetime (in CN(C)C=O) was 8.43 ns and the fluorescence lifetime (in CO) was 15.5 ns. For the same molecule, the fluorescence lifetime (in Cc1ccccc1) was 7.14 ns and the fluorescence lifetime (in ClCCl) was 5.12 ns.
With C(=C\c1nc2c3ccccc3c3ccccc3c2o1)/c1ccccc1 the fluorescence lifetime (in CC#N) was 1.83 ns.
For CC(C)(C)NC(=O)c1ccc2ccc3cccc4ccc1c2c34, the fluorescence lifetime (in ClC(Cl)Cl) was 7.55 ns.
